Measurements from the NIST ThermoML archive (doi:10.1021/je049721u).

Assay: mn = molality of the nth substance listed, in mol/kg
Conditions: 101.3 kPa, Liquid; for speed of sound: Pulse-echo method

[Ni+2].[O-][Cl+3]([O-])([O-])[O-].[O-][Cl+3]([O-])([O-])[O-] [nickel perchlorate] + CN(C)C=O
Conditions	mass density, 283.15 K [kg/m3]	mass density, 293.15 K [kg/m3]	mass density, 298.15 K [kg/m3]	mass density, 303.15 K [kg/m3]	mass density, 313.15 K [kg/m3]	mass density, 323.15 K [kg/m3]	mass density, 333.15 K [kg/m3]	speed of sound, 298.15 K [m/s]
m1 = 0.027	–	–	–	–	–	–	–	1459.6
m1 = 0.02709	963.872	954.383	949.635	944.864	935.312	925.725	916.07	–
m1 = 0.0405	966.705	957.208	952.461	947.7	938.159	928.568	918.935	1460.7
m1 = 0.054	969.549	960.073	955.329	950.578	941.045	931.471	921.848	1461.7
m1 = 0.0681	972.55	963.083	958.342	953.59	944.072	934.511	924.9	1462.9
m1 = 0.08156	975.396	965.94	961.2	956.46	946.947	937.4	927.809	1463.9
m1 = 0.1073	980.845	971.397	966.666	961.935	952.463	942.934	933.366	1466
m1 = 0.1332	986.418	976.985	972.262	967.533	958.059	948.552	939.005	1467.8
m1 = 0.1592	992.026	982.603	977.888	973.17	963.711	954.224	944.695	1470
m1 = 0.1864	997.967	988.557	983.849	979.136	969.697	960.23	950.732	1471.8
m1 = 0.2118	1003.54	994.141	989.44	984.736	975.313	965.882	956.405	1473.6
m1 = 0.2613	1014.55	1005.16	1000.47	995.784	986.394	976.988	967.56	1477.5

[O-][Cl+3]([O-])([O-])[O-].[O-][Cl+3]([O-])([O-])[O-].[Zn+2] [zinc perchlorate] + CN(C)C=O
Conditions	mass density, 283.15 K [kg/m3]	mass density, 293.15 K [kg/m3]	mass density, 298.15 K [kg/m3]	mass density, 303.15 K [kg/m3]	mass density, 313.15 K [kg/m3]	mass density, 323.15 K [kg/m3]	mass density, 333.15 K [kg/m3]	speed of sound, 298.15 K [m/s]
m1 = 0.03554	965.795	956.309	951.555	946.8	937.255	927.66	918.015	1459.9
m1 = 0.04966	968.825	959.347	954.6	949.85	940.315	930.737	921.108	–
m1 = 0.05952	970.955	961.484	956.74	951.99	942.46	932.889	923.268	1461.7
m1 = 0.06946	973.095	963.626	958.885	954.139	944.619	935.058	925.449	1462.5
m1 = 0.1039	980.554	971.105	966.376	961.642	952.143	942.607	933.036	1465
m1 = 0.1369	987.781	978.348	973.626	968.9	959.426	949.918	940.371	1467.5
m1 = 0.17	995.118	985.7	980.987	976.267	966.813	957.333	947.816	1469.6
m1 = 0.2038	1002.65	993.242	988.537	983.828	974.394	964.934	955.438	1472.1
m1 = 0.2374	1010.26	1000.87	996.17	991.474	982.063	972.635	963.178	1474.7
m1 = 0.2701	1017.77	1008.39	1003.7	999.008	989.616	980.208	970.777	1477.2
m1 = 0.3002	1024.72	1015.35	1010.66	1005.98	996.605	987.212	977.794	1479.7
m1 = 0.3314	1032.04	1022.68	1018.01	1013.33	1003.97	994.605	985.215	1482.1
